Values quoted from earlier work, collected in patent US20250009687A1, “COMPOSITIONS AND METHODS USING A COMBINATION OF NUTRIENTS TO SUPPORT COGNITION AND EMOTIONAL HEALTH IN A MAMMAL” (SOCIETE DES PRODUITS NESTLE S.A., priority 2021, published 2025).

System: TFEB
Details: Fu X. et al., Experimental Neurology 2021

For C[C@@H]1O[C@@H](O[C@H]2[C@H](O[C@H]3C[C@]4(C)[C@H](C[C@@H](O)[C@@H]5[C@@H]([C@]6(C)CC[C@H](C(C)(C)O)O6)CC[C@]54C)[C@@]4(C)CC[C@H](O)C(C)(C)[C@H]34)O[C@H](CO)[C@@H](O)[C@@H]2O)[C@H](O)[C@H](O)[C@H]1O [PF11], the neuroprotection is given as “neuroprotective” and the “Lamp1 and Ctsd mRNA” value (acting through TFEB) is given as “increase”.
